Measured values reported in paper PMC5845537 (Frontiers in Pharmacology, 2018).

Experiments:
Long-Evans rats = assay: Attentional set-shifting task (AST) in subchronic PCP-treated rats; type: in vivo, rat
Procedure: Subchronic PCP treatment: The subPCP administration regimen used in rats was conducted as described in ([Goetghebeur and Dias, 2009]), which is a reliable method for inducing deficits in our hands. Rats in the subPCP experiments received injections of 5 mg/mL PCP or vehicle (saline) s.c. at a 1 mL/kg injection volume twice per day for 7 days. […] The mouse subPCP regimen was conducted as described in [Pedersen et al. (2014)]. Briefly, mice received vehicle or PCP (1.3 mg/mL concentration, 10 mL/kg injection volume) s.c once per day for 14 days followed by a 7-day washout prior to experimentation.
Each test used male Long-Evans rats (Charles River, United States) aged 5–6 weeks when arriving at the research facility.
The attentional set-shifting test (AST) methods used here were adapted from [Goetghebeur and Dias (2009)]. The apparatus used for the AST test was a 44 cm × 64 cm × 30 cm black non-transparent Perspex test box, divided into 3 equal-sized areas (a starting area separated from a choice area subdivided in two). In the choice area, two 11 cm diameter terracotta pots were placed recessed into the box floor (with a 2 cm lip remaining above the floor) and separated by a divider. Odor (oils from The Body Shop®, United Kingdom) and media cues (not previously presented to the rats) were added to the pots.
Beginning on day 3 after the cessation of PCP administration, rats were subjected to a habituation period and trained to dig for a diet reward (half a Honey Loop cereal, Nestlé®) in terracotta pots filled with sawdust. On day 7 of PCP washout, rats were subjected to a single training session in which they were required to discriminate between two pots in order to find the reward. These discriminations were either based on differences in the digging media or the pot’s odor. On day 8 rats were presented with a series of increasingly difficult discriminations: a simple discrimination (SD), a compound discrimination (CD), two intra-dimensional shifts (ID1, ID2), an intra-dimensional shift reversal (ID2R), an extra-dimensional shift (ED) and an extra-dimensional shift reversal (EDR; see Table 1). Rats were required to meet a training criterion before moving on to a new discrimination type (for specifics, see Statistical Analysis, below).
The first trial of each discrimination stage was a discovery trial in which rats were allowed to dig in both pots, and to self-correct if digging in the wrong pot. Rats were only given one discovery trial. The discovery trial was included in the trials to criterion if the rat dug first in the correct pot, but not if the rat self-corrected an incorrect initial dig.
In the acute vortioxetine study, prior to the start of behavioral experiments on Day 8 of washout from PCP treatment, animals were randomly administered either 20% CD (Veh), […], or 64 mg/kg modafinil 30 min p.o. as described above (included as a positive control). Thus, the treatment groups in the acute vortioxetine study were as follows: Veh/Veh, PCP/Veh, PCP/1 mg/kg vortioxetine, PCP/3 mg/kg vortioxetine, PCP/10 mg/kg vortioxetine, or PCP/64 mg/kg modafinil.
Food dosing lasted from the first day of sub-chronic PCP administration and until the last day of the washout period (total of 14 days). After the end of the washout period where behavioral testing started, rats were fed with the same conditioned diet, however, under food restriction (∼11 g of diet per day per rat). In addition, some PCP-treated animals were fed vehicle food, but received acute injections of either 10 mg/kg vortioxetine, or 64 mg/kg modafinil, as described above. The treatment groups for the subchronic vortioxetine administration study were as follows: Veh/Veh, PCP/Veh, PCP/0.22 g/kg vortioxetine food, PCP/1.8 g/kg vortioxetine food, PCP/10 mg/kg vortioxetine 1 h s.c., or PCP/64 mg/kg 30 min p.o.
A third experiment was conducted to examine the effects of acute SERT inhibition or 5-HT3 receptor antagonism on subPCP-induced AST impairments. […]

GABAA receptor = assay: Ex vivo autoradiography, GABAA receptor competition binding ([3H]muscimol vs GABA), medial prefrontal cortex; set-up: species or system rat
From the text: Rats used in ex vivo autoradiography (EVA) experiments were randomly assigned to one of four experimental groups characterized by either subchronic saline or PCP (as described above) along with either vehicle or vortioxetine-infused food (1.8 g vortioxetine/kg food weight, as described in the attentional set shifting task). On day 8 of PCP withdrawal, rats were anesthetized using CO2 and killed by decapitation. Brains were quickly and gently removed from the skull, flash frozen on powdered dry ice, and stored at -20°C until sectioning. […] After the tissue mounted on the microscope slides had dried thoroughly (in order to reduce damage from freezing), slides were packed into slide boxes with desiccator pellets, and stored at -20°C for use in EVA saturation binding and competition experiments.
Each of the EVA procedures used in this study are variations on a similar theme. On the day of an experiment, slide-boxes were defrosted under a constant stream of air at room temperature until the boxes were dry and equilibrated with the environment in terms of temperature. […] Prior to any binding experiments, slides were preincubated in the appropriate preincubation buffer and dried at room temperature. Subsequently, tissue was incubated in an assay buffer containing a radioligand appropriate for the receptor of interest, then rinsed in assay buffer, and dried overnight in a vacuum desiccator. […] Finally, slides were opposed to a tritium-sensitive phosphor screen (Fuji imaging plate, GE Healthcare, Pittsburgh, PA, United States) for 5 days before being read in a phosphorimager (Typhoon FLA7000, GE Healthcare).
Ki values for competition experiments were calculated separately for each animal, then aggregated to estimate sample averages and error. Ki values were calculated via non-linear regression, assuming a one-site competition binding, using GraphPad Prism version 6 for Windows (GraphPad software, La Jolla, CA, United States). pKi values were then calculated via the following formula: pKi = -Log10(Ki).

[1] = subchronic vortioxetine study, subPCP vs Veh/Veh, p < 0.001
[2] = subchronic high-dose 1.8 g vortioxetine/kg food weight p.o., p < 0.001
[3] = subchronic low-dose 0.18 g vortioxetine/kg food weight p.o., p < 0.001
[4] = subchronic vortioxetine study, acute 10 mg/kg 1 h s.c., p < 0.001

Structure (SMILES) | trials to reach criterion, EDR discrimination (Long-Evans rats; acute vortioxetine study, subPCP/vehicle vs vehicle/vehicle) | trials to reach criterion, ED discrimination (Long-Evans rats; acute vortioxetine study, subPCP/vehicle vs vehicle/vehicle, PCP 5 mg/kg s.c. twice per day 7 days, 7-day washout, p < 0.01) | trials to reach criterion, EDR discrimination (Long-Evans rats; ondansetron/escitalopram study, subPCP vs vehicle/vehicle) | trials to reach criterion, ED discrimination (Long-Evans rats; ondansetron/escitalopram study, subPCP vs vehicle/vehicle, p < 0.001) | trials to reach criterion, ED discrimination (Long-Evans rats; [1]) | trials to reach criterion, EDR discrimination (Long-Evans rats; [1]) | effect of treatment on GABA pKi at the GABAA receptor (GABAA receptor; subPCP treatment on its own) | reversal of subPCP-induced impairment, ED discrimination (trials to criterion) (Long-Evans rats; acute vortioxetine study, 1 mg/kg 1 h s.c., vs PCP/Veh) | reversal of subPCP-induced impairment, ED discrimination (trials to criterion) (Long-Evans rats; acute vortioxetine study, 3 mg/kg 1 h s.c., vs PCP/Veh) | reversal of subPCP-induced impairment, ED discrimination (trials to criterion) (Long-Evans rats; acute vortioxetine study, 10 mg/kg 1 h s.c., vs PCP/Veh) | reversal of subPCP-induced impairment, EDR discrimination (trials to criterion) (Long-Evans rats; acute vortioxetine study, acute 1, 3, 10 mg/kg 1 h s.c., vs PCP/Veh) | attenuation of subPCP-induced impairment, ED discrimination (Long-Evans rats; [2]) | attenuation of subPCP-induced impairment, EDR discrimination (Long-Evans rats; [2]) | attenuation of subPCP-induced impairment, ED discrimination (Long-Evans rats; [3]) | attenuation of subPCP-induced impairment, EDR discrimination (Long-Evans rats; [3]) | normalization of AST performance in subPCP-treated rats, ED (Long-Evans rats; [4]) | normalization of AST performance in subPCP-treated rats, EDR (Long-Evans rats; [4]) | GABA pKi at the GABAA receptor, PCP/vortioxetine vs vehicle/vortioxetine group (GABAA receptor; subchronic vortioxetine combined with subPCP, p < 0.01) | increase in the affinity of GABA for the GABAA receptor (GABAA receptor; vehicle/vortioxetine vs saline/vehicle group, subchronic 1.8 g vortioxetine/kg food, p < 0.01)
Cl.c1ccc(C2(N3CCCCC3)CCCCC2)cc1 [PCP, 1-(1-phenylcyclohexyl)-piperidine hydrochloride] | significant increases | significant increase | failed to induce a significant increase | significant increase | significant increase | significant increase | did not significantly alter |  |  |  |  |  |  |  |  |  |  |  | 
Cc1ccc(Sc2ccccc2N2CCNCC2)c(C)c1 [vortioxetine] |  |  |  |  |  |  |  | significantly reversed | significantly reversed | significantly reversed | neither acute vortioxetine nor modafinil significantly reversed | significantly attenuated | significantly attenuated | significantly attenuated | significantly attenuated | significant normalization | significant normalization | significantly lower | approximately 2.5 fold
